# Experimental data as given in PubChem BioAssay AID1963447 (Molecular Pharmacology Branch, DTP, NCI, 2024).
# “And” between values parts separate entries of the source, which are not always exact repeats. Identical values can stand only once.
# System: 885512-296-R-J2-PDC complex spheroid growth, % test/control
# Assay: Anticancer human tumor 885512-296-R-J2-PDC patient-derived breast carcinoma cell line growth inhibition [Asc]
# Conditions: for viability, T/C: stronger effect = lower value
# Method: Multicellular complex tumor spheroid response to apoptosis pathway targeting inhibitors Alrizomadlin, Pelcitoclax, and Dasminapant in combination with a variety of drugs and investigational agents in selected tumor cell lines
# The MDM2 inhibitor alrizomadlin, the Bcl-2/Bcl-xL inhibitor pelcitoclax, and the IAPs inhibitor dasminapant were evaluated both individually and in combination with standard of care and investigational anticancer small molecules within a complex spheroid model of solid tumors. . Complex spheroids include a stromal component modeled by human endothelial cells (HUVEC) and fibroblasts modeled by human mesenchymal stem cells (MSCs). The concentration ranges selected for each drug and investigational agent were based upon clinically achievable concentrations if the clinical Cmax of the agent was known.
# Compounds. The drugs and investigational agents: alrizomadlin (APG-115; NSC831270), pelcitoclax (APG-1252; NSC835773), dasminapant (APG-1387;NSC834197), TAK-243 (NSC785004), copanlisib (NSC809693), olaparib (NSC753686), talazoparib (NSC767125), cobimetinib (NSC 768068), eltanexor (KPT-8602, NSC 794443), abemaciclib (NSC 768073), sotorasib (NSC818433), adagrasib (NSC 831453), MRTX-1133 (NSC 836407), Iadademestat (ORY1001, NSC 806812), and RMC-4630 (NSC839698), were obtained from the NCI Developmental Therapeutics Program Chemical Repository. The FDA-approved anticancer drug set is available from the Developmental Therapeutics Program at https://dtp.cancer.gov/organization/dscb/obtaining/available plates.htm. […] The stock solutions were prepared in dimethyl sulfoxide (DMSO, Sigma-Aldrich, St. Louis, MO, cat. D2650) at 800-fold the tested concentration and stored at -70 degrees C prior to their use. All drugs and investigational agents were tested over a range starting from a high concentration at or near the clinical Cmax and decreasing in half-log increments. If the clinical Cmax for an agent had not been determined, the highest concentration tested was 10 microM.
# The patient-derived cancer (PDC) cell lines include five colon adenocarcinomas: 186277-243-T-J2-PDC, 616215-338-R-J1-PDC, 439559-082-T-J2-PDC, 463943-066-T-J2-PDC, and 519858-162-T-J1-PDC; three pancreatic carcinomas: 323965-272-R-J2-PDC, 521955-158-R6-J3-PDC, and 521955-158-R2-J5-PDC; two uterine sarcomas: 327498-152-R-J2-PDC and 993429-296-R-J1-PDC; two rhabdomyosarcomas: 755483-174-R-J1-PDC and 772245-204-R-J1-PDC; two soft tissue sarcomas: 126254-015-R-J1-PDC and 494315-158-R-J1-PDC; two malignant fibrous histiocytomas: 317291-083-R-J1-PDC and 596521-263-R-J1-PDC; two breast carcinomas: 171881-019-R-J1-PDC and 885512-296-R-J2-PDC; and one ovarian carcinoma: 6556581-035-R-J-PDC were obtained from the NCI PDMR, (https://pdmr.cancer.gov). The established cell lines HSSY-2 synovial sarcoma (RRID:CVCL 8719), SYO-1 synovial sarcoma (RRID:CVCL_7146), MPNST malignant peripheral neural sheath tumor were obtained from the Sloan Kettering Institute. The following established cell lines were purchased from the American Type Culture Collection (ATCC, Manassas, VA), Sor the received from the NCI repository:, PANC-1 pancreatic carcinoma (CRL-1469, RRID:CVCL_0480), OVCAR-5 ovarian carcinoma (RRID:CVCL_1628), OVCAR-8 ovarian carcinoma (RRID:CVCL_1629), , MCF-7 breast carcinoma (CRL-12584, RRID:CVCL_0031), MDA-MB-231 breast carcinoma (CRL-12532, RRID:CVCL_0062), NCI-H1876 small cell lung carcinoma (CRL-5902, RRID:CVCL_1503), NCI-H510A small cell lung carcinoma (HTB-184, RRID:CVCL_1565), NCI-H1417 (CRL-5869, RRID:CVCL_1469), and NCI-H196 small cell lung carcinoma (CRL-5823, RRID:CVCL_1509). Dr. Peter Houghton (Greehey Children's Cancer Research Institute, University of Texas Health Science Center, San Antonio, TX) provided Rh-18 rhabdomyosarcoma (RRID:CVCL_1659). Pooled donor human umbilical vein endothelial cells (HUVEC, Lonza, cat. CC-2519) and human mesenchymal stem cells (hMSC, Lonza, cat. PT-2501) were purchased from Lonza (Walkersville, MD).
# Cell Culture. […]
# [1] = curve of first compound, second compound 0.03 µM
# [2] = curve of first compound, second compound 0.0949 µM
# [3] = curve of first compound, second compound 0.3 µM
# [4] = curve of first compound, second compound 0.949 µM
# [5] = curve of first compound, second compound 3 µM
# 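Further: spheroids exposed to compounds for seven days.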
# 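Wherever viability, T/C is given: 100% = DMSO vehicle control wells.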
smiles,measurement,setting,value
Cn1ncnc1[C@H]1c2n[nH]c(=O)c3cc(F)cc(c23)N[C@@H]1c1ccc(F)cc1 + CCN1C(C(=O)NC23CCC(C(=O)O)(CC2)CC3)C(c2cccc(Cl)c2F)C2(C(=O)Nc3cc(Cl)ccc32)C12CCCCC2,IC50,[1],37.8 nM
same,IC50,[2],54.2 nM
same,IC50,[3],21 nM
same,IC50,[4],23.5 nM
same,IC50,[5],< 0.316 nM
same,"viability, T/C","second compound 0.03 µM, first compound 0.000316 µM",88.7%
same,"viability, T/C","second compound 0.03 µM, first compound 0.001 µM",107%
same,"viability, T/C","second compound 0.03 µM, first compound 0.00316 µM",91.6%
same,"viability, T/C","second compound 0.03 µM, first compound 0.01 µM",66.9%
same,"viability, T/C","second compound 0.03 µM, first compound 0.0316 µM",58%
same,"viability, T/C","second compound 0.03 µM, first compound 0.1 µM",35.5%
same,"viability, T/C","second compound 0.0949 µM, first compound 0.000316 µM",91%
same,"viability, T/C","second compound 0.0949 µM, first compound 0.001 µM",101%
same,"viability, T/C","second compound 0.0949 µM, first compound 0.00316 µM",93.3%
same,"viability, T/C","second compound 0.0949 µM, first compound 0.01 µM",76.2%
same,"viability, T/C","second compound 0.0949 µM, first compound 0.0316 µM",57%
same,"viability, T/C","second compound 0.0949 µM, first compound 0.1 µM",43.1%
same,"viability, T/C","second compound 0.3 µM, first compound 0.000316 µM",80.5%
same,"viability, T/C","second compound 0.3 µM, first compound 0.001 µM",90.8%
same,"viability, T/C","second compound 0.3 µM, first compound 0.00316 µM",88%
same,"viability, T/C","second compound 0.3 µM, first compound 0.01 µM",60%
same,"viability, T/C","second compound 0.3 µM, first compound 0.0316 µM",49.2%
same,"viability, T/C","second compound 0.3 µM, first compound 0.1 µM",35.2%
same,"viability, T/C","second compound 0.949 µM, first compound 0.000316 µM",80.2%
same,"viability, T/C","second compound 0.949 µM, first compound 0.001 µM",72.6%
same,"viability, T/C","second compound 0.949 µM, first compound 0.00316 µM",63.1%
same,"viability, T/C","second compound 0.949 µM, first compound 0.01 µM",60.5%
same,"viability, T/C","second compound 0.949 µM, first compound 0.0316 µM",47.7%
same,"viability, T/C","second compound 0.949 µM, first compound 0.1 µM",35.3%
same,"viability, T/C","second compound 3 µM, first compound 0.000316 µM",43.9%
same,"viability, T/C","second compound 3 µM, first compound 0.001 µM",40.2%
same,"viability, T/C","second compound 3 µM, first compound 0.00316 µM",41.8%
same,"viability, T/C","second compound 3 µM, first compound 0.01 µM",38.4%
same,"viability, T/C","second compound 3 µM, first compound 0.0316 µM",40.2%
same,"viability, T/C","second compound 3 µM, first compound 0.1 µM",31.6%
Cc1nc(N2CCC3(CC2)COC(C)C3N)c(CO)nc1Sc1ccnc(N)c1Cl (configuration not stated) + CCN1C(C(=O)NC23CCC(C(=O)O)(CC2)CC3)C(c2cccc(Cl)c2F)C2(C(=O)Nc3cc(Cl)ccc32)C12CCCCC2,IC50,[1],361 nM
same,IC50,[2],134 nM
same,IC50,[3],165 nM
same,IC50,[4],59.8 nM
same,IC50,[5],< 9.49 nM
same,"viability, T/C","second compound 0.03 µM, first compound 0.00949 µM",90.6%
same,"viability, T/C","second compound 0.03 µM, first compound 0.03 µM",79%
same,"viability, T/C","second compound 0.03 µM, first compound 0.0949 µM",59.8%
same,"viability, T/C","second compound 0.03 µM, first compound 0.3 µM",51.6%
same,"viability, T/C","second compound 0.03 µM, first compound 0.949 µM",45.2%
same,"viability, T/C","second compound 0.03 µM, first compound 3 µM",35.4%
same,"viability, T/C","second compound 0.0949 µM, first compound 0.00949 µM",96.5%
same,"viability, T/C","second compound 0.0949 µM, first compound 0.03 µM",78.9%
same,"viability, T/C","second compound 0.0949 µM, first compound 0.0949 µM",51.2%
same,"viability, T/C","second compound 0.0949 µM, first compound 0.3 µM",45.4%
same,"viability, T/C","second compound 0.0949 µM, first compound 0.949 µM",41.3%
same,"viability, T/C","second compound 0.0949 µM, first compound 3 µM",35.5%
same,"viability, T/C","second compound 0.3 µM, first compound 0.00949 µM",82.3%
same,"viability, T/C","second compound 0.3 µM, first compound 0.03 µM",60.2%
same,"viability, T/C","second compound 0.3 µM, first compound 0.0949 µM",51.6%
same,"viability, T/C","second compound 0.3 µM, first compound 0.3 µM",53.1%
same,"viability, T/C","second compound 0.3 µM, first compound 0.949 µM",42.8%
same,"viability, T/C","second compound 0.3 µM, first compound 3 µM",36.9%
same,"viability, T/C","second compound 0.949 µM, first compound 0.00949 µM",59.3%
same,"viability, T/C","second compound 0.949 µM, first compound 0.03 µM",51.1%
same,"viability, T/C","second compound 0.949 µM, first compound 0.0949 µM",46.9%
same,"viability, T/C","second compound 0.949 µM, first compound 0.3 µM",46.2%
same,"viability, T/C","second compound 0.949 µM, first compound 0.949 µM",39.1%
same,"viability, T/C","second compound 0.949 µM, first compound 3 µM",35.2%
same,"viability, T/C","second compound 3 µM, first compound 0.00949 µM",39.3%
same,"viability, T/C","second compound 3 µM, first compound 0.03 µM",35%
same,"viability, T/C","second compound 3 µM, first compound 0.0949 µM",28.1%
same,"viability, T/C","second compound 3 µM, first compound 0.3 µM",32%
same,"viability, T/C","second compound 3 µM, first compound 0.949 µM",30.3%
same,"viability, T/C","second compound 3 µM, first compound 3 µM",27.1%
O=C(c1cc(Cc2n[nH]c(=O)c3ccccc23)ccc1F)N1CCN(C(=O)C2CC2)CC1,"viability, T/C",compound 0.0316 µM,99.2% and 96.5% and 98%
same,"viability, T/C",compound 0.1 µM,113% and 117% and 108%
same,"viability, T/C",compound 0.316 µM,102% and 115% and 97.6%
same,"viability, T/C",compound 1 µM,98.8% and 98.3% and 107%
same,"viability, T/C",compound 3.16 µM,71.3% and 71.5% and 75.3%
same,"viability, T/C",compound 10 µM,19.2% and 17.5% and 20.8%
same,IC50,curve of compound,5070 nM and 4970 nM and 5400 nM
